Columns and labels:
[1] = Solubility in water; format: physicochemical
[2] = Gravimetric vapor sorption (GVS); format: physicochemical; conditions: between 0-90% RH, 10% RH intervals, 25° C.

| solubility in water [1] | uptake (change in weight of the sample) in GVS [2] [%] | Compound |
| --- | --- | --- |
| about 8 mg/mL | – | COc1cc(Nc2ncc3c(n2)-c2ccc(Cl)cc2C(c2c(F)cccc2OC)=NC3)ccc1C(=O)O [Form 24, sodium 4-{[9-chloro-7-(2-fluoro-6-methoxyphenyl)-5H-pyrimido[5,4-d][2]benzazepin-2-yl]amino}-2-methoxybenzoate Form 24] |
| greater than 10 mg/mL | 6 | COc1cc(Nc2ncc3c(n2)-c2ccc(Cl)cc2C(c2c(F)cccc2OC)=NC3)ccc1C(=O)O [Form 6, sodium 4-{[9-chloro-7-(2-fluoro-6-methoxyphenyl)-5H-pyrimido[5,4-d][2]benzazepin-2-yl]amino}-2-methoxybenzoate Form 6] |
| about 8 mg/mL | – | COc1cc(Nc2ncc3c(n2)-c2ccc(Cl)cc2C(c2c(F)cccc2OC)=NC3)ccc1C(=O)O [Form 2, sodium 4-{[9-chloro-7-(2-fluoro-6-methoxyphenyl)-5H-pyrimido[5,4-d][2]benzazepin-2-yl]amino}-2-methoxybenzoate Form 2] |
| about 10 μg/mL | – | COc1cc(Nc2ncc3c(n2)-c2ccc(Cl)cc2C(c2c(F)cccc2OC)=NC3)ccc1C(=O)O [free acid, 4-{[9-chloro-7-(2-fluoro-6-methoxyphenyl)-5H-pyrimido[5,4-d][2]benzazepin-2-yl]amino}-2-methoxybenzoic acid] |
